Assay results as given in the CombiSolv-Exp solvation set (Vermeire and Green 2021).
Values belong to the molecule of their own block, whether it stands above or below them.

Assay: solvent given as SMILES
[1] = in CCCCCCCCC=CCCCCCCCC(=O)OCC(COC(=O)CCCCCCCC=CCCCCCCCC)OC(=O)CCCCCCCC=CCCCCCCCC

SMILES: CCOCC
solvation free energy, 298 K (in C1CCOC1): -3.51 kcal/mol
solvation free energy, 298 K (in C=CCCCCCCCCCCCCCC): -2.74 kcal/mol
solvation free energy, 298 K (in CC(=O)N(C)C): -2.81 kcal/mol
solvation free energy, 298 K (in CC(C)=O): -3.25 kcal/mol
solvation free energy, 298 K (in CCCCCCCC): -3.05 kcal/mol
solvation free energy, 298 K (in CCCCCCCCCCCCCCCC): -2.79 kcal/mol
solvation free energy, 298 K (in CCCCCCCCCCO): -2.93 kcal/mol
solvation free energy, 298 K (in CCCCCCCCO): -2.99 kcal/mol
solvation free energy, 298 K (in CCCCCO): -3.12 kcal/mol
solvation free energy, 298 K (in CCCCCl): -3.4 kcal/mol
solvation free energy, 298 K (in CCCCN(C=O)CCCC): -2.88 kcal/mol
solvation free energy, 298 K (in CCCCO): -3.1 kcal/mol
solvation free energy, 298 K (in CCCCOCCCC): -3.23 kcal/mol
solvation free energy, 298 K (in CCN1CCCC1=O): -2.77 kcal/mol
solvation free energy, 298 K (in CCN(CC)C(C)=O): -2.95 kcal/mol
solvation free energy, 298 K (in CCNC(C)=O): -2.82 kcal/mol
solvation free energy, 298 K (in CCNC=O): -2.78 kcal/mol
solvation free energy, 298 K (in CCO): -3.26 kcal/mol
solvation free energy, 298 K (in CCOC(C)(C)C): -3.23 kcal/mol
solvation free energy, 298 K (in CN1CCCC1=O): -2.77 kcal/mol
solvation free energy, 298 K (in CN1CCCCC1=O): -2.77 kcal/mol
solvation free energy, 298 K (in CN(C)C=O): -2.81 kcal/mol
solvation free energy, 298 K (in CNC(C)=O): -2.77 kcal/mol
solvation free energy, 298 K (in CNC=O): -2.66 kcal/mol
solvation free energy, 298 K (in CO): -3.26 kcal/mol
solvation free energy, 298 K (in CS(C)=O): -2.2 kcal/mol
solvation free energy, 298 K (in Cc1cccc(C)c1): -3.29 kcal/mol
solvation free energy, 298 K (in ClC(Cl)(Cl)Cl): -3.52 kcal/mol
solvation free energy, 298 K (in ClCCCl): -3.44 kcal/mol
solvation free energy, 298 K (in ClCCl): -3.92 kcal/mol
solvation free energy, 298 K (in NC=O): -1.93 kcal/mol
solvation free energy, 298 K (in O): -1.74 kcal/mol
solvation free energy, 298 K (in [2H]O[2H]): -1.96 kcal/mol

SMILES: C=CC
solvation free energy, 298 K (in C1CCC2CCCCC2C1): -1.43 kcal/mol
solvation free energy, 298 K (in C1COCCO1): -1.36 kcal/mol
solvation free energy, 298 K (in CC1COC(=O)O1): -0.97 kcal/mol
solvation free energy, 298 K (in CC(C)(C)O): -1.35 kcal/mol
solvation free energy, 298 K (in CC(C)CC(C)(C)C): -1.61 kcal/mol
solvation free energy, 298 K (in CC(C)CCO): -1.31 kcal/mol
solvation free energy, 298 K (in CC(C)CO): -1.3 kcal/mol
solvation free energy, 298 K (in CC(C)O): -1.32 kcal/mol
solvation free energy, 298 K (in CCC(C)(C)O): -1.39 kcal/mol
solvation free energy, 298 K (in CCC(C)=O): -1.54 kcal/mol
solvation free energy, 298 K (in CCC(C)CO): -1.3 kcal/mol
solvation free energy, 298 K (in CCC(C)O): -1.32 kcal/mol
solvation free energy, 298 K (in CCC(O)CC): -1.31 kcal/mol
solvation free energy, 298 K (in CCCC(C)O): -1.31 kcal/mol
solvation free energy, 298 K (in CCCCC): -1.79 kcal/mol
solvation free energy, 298 K (in CCCCCC): -1.75 kcal/mol
solvation free energy, 298 K (in CCCCCCC): -1.74 kcal/mol
solvation free energy, 298 K (in CCCCCCCC): -1.71 kcal/mol
solvation free energy, 298 K (in CCCCCCCCC): -1.7 kcal/mol
solvation free energy, 298 K (in CCCCCCCCCC): -1.68 kcal/mol
solvation free energy, 298 K (in CCCCCCCCCCCCCCCC): -1.32 kcal/mol
solvation free energy, 298 K (in CCCCCCCCO): -1.25 kcal/mol
solvation free energy, 298 K (in CCCCCO): -1.32 kcal/mol
solvation free energy, 298 K (in CCCCO): -1.41 kcal/mol
solvation free energy, 298 K (in CCCO): -1.35 kcal/mol
solvation free energy, 298 K (in CCOC(C)=O): -1.51 kcal/mol
solvation free energy, 298 K (in CN1CCCC1=O): -1.24 kcal/mol
solvation free energy, 298 K (in CN(C)C=O): -1.3 kcal/mol
solvation free energy, 298 K (in CN(C)P(=O)(N(C)C)N(C)C): -1.39 kcal/mol
solvation free energy, 298 K (in CO): -1.3 kcal/mol
solvation free energy, 298 K (in COCCOCCOCCOC): -1.06 kcal/mol
solvation free energy, 298 K (in CS(C)=O): -0.78 kcal/mol
solvation free energy, 298 K (in Cc1ccc(C)cc1): -1.58 kcal/mol
solvation free energy, 298 K (in Cc1cccc(C)c1): -1.58 kcal/mol
solvation free energy, 298 K (in Cc1ccccc1C): -1.56 kcal/mol
solvation free energy, 298 K (in ClC(Cl)(Cl)Cl): -1.84 kcal/mol
solvation free energy, 298 K (in Nc1ccccc1): -1.08 kcal/mol
solvation free energy, 298 K (in O): 1.22 kcal/mol
solvation free energy, 298 K (in OCCCOCCCO): -0.76 kcal/mol
solvation free energy, 298 K (in OCCO): -0.45 kcal/mol
solvation free energy, 298 K (in OCc1ccccc1): -1.09 kcal/mol
solvation free energy, 298 K (in c1ccccc1): -1.64 kcal/mol

SMILES: Cc1cccc2c(C)cccc12
solvation free energy, 298 K [1]: -9.3 kcal/mol
solvation free energy, 298 K (in O): -2.78 kcal/mol

SMILES: c1ccc2c(c1)OCCOCCOCCOCCO2
solvation free energy, 298 K (in Cc1cccc(C)c1): -14.8 kcal/mol
solvation free energy, 298 K (in O): -14.4 kcal/mol

SMILES: FC(F)(F)CCl
solvation free energy, 298 K (in CCCCCCCC(=O)OCC(COC(=O)CCCCCCC)OC(=O)CCCCCCC): -2.41 kcal/mol
solvation free energy, 298 K (in O): 0.06 kcal/mol

SMILES: CCCCCCCCCCCCCCCC
solvation free energy, 298 K (in CCO): -8.9 kcal/mol
solvation free energy, 298 K (in ClC(Cl)(Cl)Cl): -11.4 kcal/mol
solvation free energy, 298 K (in ClCCCl): -9.66 kcal/mol
solvation free energy, 298 K (in O=Cc1ccco1): -7.93 kcal/mol
solvation free energy, 298 K (in OCCOCCO): -5.77 kcal/mol

SMILES: CC(C)(Cl)Cl
solvation free energy, 298 K (in O): -0.43 kcal/mol

SMILES: CCCCN(C)N=O
solvation free energy, 298 K (in CC(C)CC(C)(C)C): -5.73 kcal/mol
solvation free energy, 298 K (in O): -5.37 kcal/mol

SMILES: FC(F)(F)C(Cl)Br (stereo not drawn)
solvation free energy, 298 K (in C1CCOC1): -5.01 kcal/mol
solvation free energy, 298 K (in C1COCCO1): -4.41 kcal/mol
solvation free energy, 298 K (in CC(C)=O): -4.77 kcal/mol
solvation free energy, 298 K (in COC(C)(C)C): -4.69 kcal/mol
solvation free energy, 298 K (in COC(C)=O): -4.61 kcal/mol

SMILES: CCNc1nc(Cl)nc(NCC)n1
solvation free energy, 298 K (in O): -10.1 kcal/mol

SMILES: O=[N+]([O-])c1c(Cl)c(Cl)cc(Cl)c1Cl
solvation free energy, 298 K [1]: -10.8 kcal/mol
solvation free energy, 298 K (in O): -3.77 kcal/mol

SMILES: CC(C)Br
solvation free energy, 298 K (in C=CCCCCCCCCCCCCCC): -3.29 kcal/mol
solvation free energy, 298 K (in O): -0.48 kcal/mol

SMILES: CCOC(=O)OCC
solvation free energy, 298 K (in COC(C)(C)C): -5.35 kcal/mol
solvation free energy, 298 K (in ClC(Cl)(Cl)Cl): -5.78 kcal/mol
solvation free energy, 298 K (in O): -3.28 kcal/mol

SMILES: O=C(O)c1ccc(Cl)c([N+](=O)[O-])c1
solvation free energy, 298 K (in C1CCOC1): -14.2 kcal/mol
solvation free energy, 298 K (in C1COCCO1): -14.2 kcal/mol
solvation free energy, 298 K (in CC(C)(C)O): -13.3 kcal/mol
solvation free energy, 298 K (in CC(C)CCO): -13.1 kcal/mol
solvation free energy, 298 K (in CC(C)CO): -12.9 kcal/mol
solvation free energy, 298 K (in CC(C)O): -13.4 kcal/mol
solvation free energy, 298 K (in CCC(C)O): -13.2 kcal/mol
solvation free energy, 298 K (in CCCC(=O)OC): -13 kcal/mol
solvation free energy, 298 K (in CCCC(C)O): -13.2 kcal/mol
solvation free energy, 298 K (in CCCCCCCCCCO): -12.9 kcal/mol
solvation free energy, 298 K (in CCCCCCCCO): -13.1 kcal/mol
solvation free energy, 298 K (in CCCCCCCO): -13.1 kcal/mol
solvation free energy, 298 K (in CCCCCCO): -13.1 kcal/mol
solvation free energy, 298 K (in CCCCCO): -13.2 kcal/mol
solvation free energy, 298 K (in CCCCO): -13.2 kcal/mol
solvation free energy, 298 K (in CCCCOC(C)=O): -13.1 kcal/mol
solvation free energy, 298 K (in CCCO): -13.3 kcal/mol
solvation free energy, 298 K (in CCCOC(C)=O): -12.8 kcal/mol
solvation free energy, 298 K (in CCO): -13.5 kcal/mol
solvation free energy, 298 K (in CCOC(C)=O): -13.3 kcal/mol
solvation free energy, 298 K (in CCOCC): -13.1 kcal/mol
solvation free energy, 298 K (in CN(C)C=O): -14.1 kcal/mol
solvation free energy, 298 K (in COC(C)=O): -13.4 kcal/mol
solvation free energy, 298 K (in O): -9.84 kcal/mol

Continued, values first:

solvation free energy, 298 K (in O): 3.75 kcal/mol
SMILES: C=CC(C)CCCC(C)CCCC(C)CCCC(C)C (stereo not drawn)

solvation free energy, 298 K (in O): -3.36 kcal/mol
SMILES: C=C(C)C(CC=C(C)C)COC(C)=O (stereo not drawn)

solvation free energy, 298 K (in C1CCCCC1): -5.47 kcal/mol
SMILES: NC1CCCCC1

solvation free energy, 298 K (in O): -4.97 kcal/mol
SMILES: CC(=O)OC(C)OC(C)=O

solvation free energy, 298 K (in O): -4.91 kcal/mol
SMILES: CC(=O)CC(=O)C(F)(F)F

solvation free energy, 298 K (in O): -7.23 kcal/mol
SMILES: CCCCCCCCCCCCCCCC(=O)OCC

solvation free energy, 298 K (in O): -0.37 kcal/mol
SMILES: CC1=CCC(=C(C)C)CCC(C)=CCC1

solvation free energy, 298 K (in O): -0.08 kcal/mol
SMILES: CC(C)C1=CC2=CCC3C(C)(C)CCCC3(C)C2CC1 (stereo not drawn)

solvation free energy, 298 K (in CC(C)O): -13.4 kcal/mol
solvation free energy, 298 K (in CCCCO): -13.3 kcal/mol
solvation free energy, 298 K (in CCO): -13.8 kcal/mol
solvation free energy, 298 K (in CN(C)C=O): -15.4 kcal/mol
solvation free energy, 298 K (in O): -16.6 kcal/mol
SMILES: OCC(O)C(O)C(O)CO (stereo not drawn)

solvation free energy, 298 K (in O): -3.19 kcal/mol
SMILES: CCC=CCCC=O

solvation free energy, 298 K (in O): -3.26 kcal/mol
SMILES: C=CC(C)(CCC=C(C)C)OC(=O)CC (stereo not drawn)

solvation free energy, 298 K (in O): -9 kcal/mol
SMILES: CCNc1nc(NC(C)(C)C)nc(OC)n1

solvation free energy, 298 K (in CC(C)CO): -11.2 kcal/mol
solvation free energy, 298 K (in CC(C)O): -11.3 kcal/mol
solvation free energy, 298 K (in CCC(C)O): -11.2 kcal/mol
solvation free energy, 298 K (in CCCCO): -11.4 kcal/mol
solvation free energy, 298 K (in CCCO): -11.5 kcal/mol
solvation free energy, 298 K (in CCO): -11.6 kcal/mol
solvation free energy, 298 K (in CO): -11.8 kcal/mol
SMILES: O=C(Oc1ccccc1)Oc1ccccc1

solvation free energy, 298 K (in C1CCOC1): -4.45 kcal/mol
solvation free energy, 298 K (in CCCCCC): -3.65 kcal/mol
solvation free energy, 298 K (in CCCCCCC): -3.63 kcal/mol
solvation free energy, 298 K (in CCCCCCCC): -3.57 kcal/mol
solvation free energy, 298 K (in CCCCCCCCCC): -3.49 kcal/mol
solvation free energy, 298 K (in CCCO): -3.89 kcal/mol
solvation free energy, 298 K (in CCO): -4.15 kcal/mol
solvation free energy, 298 K (in CO): -4.32 kcal/mol
solvation free energy, 298 K (in O): -2.93 kcal/mol
SMILES: CCC(=O)OC

solvation free energy, 298 K (in CC(C)CC(C)(C)C): -7.06 kcal/mol
solvation free energy, 298 K (in CCCCCC): -7.08 kcal/mol
solvation free energy, 298 K (in CCCCCCC): -7.12 kcal/mol
solvation free energy, 298 K (in CCCCCCCC): -7.13 kcal/mol
solvation free energy, 298 K (in CCCCCCCCCC): -7.16 kcal/mol
SMILES: O=[N+]([O-])c1cc[n+]([O-])cc1
